Patent US8026219B2, “Antimicrobial linear peptides” (Universitat de Girona, priority 2006, dated 2011)
Residues, ends and D or L forms follow the SMILES beside them. No end group written: not given here. *: point of attachment. Tos = Cc1ccc(S(=O)(=O)*)cc1; Bz = O=C(c1ccccc1)*

Legend:
Proteinase K [1] = biological target: T1, Proteinase K (Parengyodontium album, UniProt P06873); test: in vitro; conditions: Proteinase K (1 μg/ml), pH 7.6
Method: (§2) The degradation is expressed as the percentage of peptide degraded after a determined time interval calculated from the decrease in the area of the peak of the native peptide by HPLC.
(§3) The stability of the peptides of the invention to degradation by proteases is determined by a peptide digestion test by Proteinase K (Sigma-Aldrich Corporation, Madrid, Spain).
(§4) A solution of 50 μg/ml of the peptide and 1 μg/ml of Proteinase K in 100 mM TRIS buffer at pH 7.6 was used, at ambient temperature.
(§5) The progress of the peptide excision was determined chromatographically at times between 5 and 45 minutes. To do this a reverse phase C18 column was used (Kromasil, 4.6×40 mm; 3.5 μm particle size), and linear gradients from 0.98:0.02 to 0:1 during 7 min performing the detection by absorbance in ultraviolet light at 220 nm.

[2] = tested on: Erwinia amylovora PMV6076; test: Minimum inhibitory concentration (MIC), microbial growth by optical density; assay type: cell-based; conditions: 48 h incubation at 25° C., TSB medium
Method: (§1) Each experiment was performed twice.

[3] = tested on: Pseudomonas syringae EPS94; test: as above; assay type: cell-based; conditions: 48 h incubation at 25° C., TSB medium
Method: as §1

[4] = tested on: Xanthomonas vesicatori 2133-2; test: as above; conditions: 48 h incubation at 25° C., TSB medium
Method: All the bacteria were stored at a temperature of −80° C. in Luria-Bertani (LB) medium supplemented with 20% glycerine in volume/volume.
In all cases they were resuspended in sterile water to obtain a suspension adjusted to an absorbance of 0.2 to 60 nm, which approximately corresponds to 10^8 colony forming units.
To determine the minimum inhibitory concentration (MIC), the peptides were solubilized in milli-Q sterile water until a final concentration of 1000 μM and they were filtered through a 0.22 μm pore size filter.
Dilutions of the peptides of the invention were made to obtained solutions at the concentrations of 750, 500, 250, 200, 150, 125, 100, 75, 50 and 25 μM.
20 μl of each dilution were mixed with 20 μl of the suspension of the corresponding bacterial indicator, and 160 μl of the TSB (Trypticase Soy Broth) liquid medium until a total volume of 200 μl in each well of a microplate.
Two replicas were carried out for each strain, concentration and peptide under study.
The positive controls contained water instead of peptide, and the negative controls contained the peptides without the bacterial suspension.
The microbial growth was determined automatically by optical density at 600 nm using the Microbiology Analyser Bioscreen C (Labsystems)
The microplates were incubated at 25° C. for 48 hours with stirring for 20 seconds before measuring the absorbance every hour. Each experiment was performed twice.

[5] = tested on: erythrocytes from fresh human blood; conditions: 5% erythrocytes, 1 h at 37° C., relative to 200 μM melittin; for % Haemolysis 50 μM: 50 μM peptide; for % Haemolysis 150 μM: 150 μM peptide; for % Haemolysis 250 μM: 250 μM peptide
Method: A description of the methodology used to determine the haemolytic activity is found in Oren et al, Biochemistry, 2000, 39, 6103-6114, and in Raguse et al., J. Am. Chem. Soc., 2002, 124, 12774-12785.
The haemolytic activity of the peptides of the invention was evaluated by determining the release of haemoglobin which is produced on placing in contact a solution of the peptides with a suspension of erythrocytes 5% by volume, from fresh human blood.
The blood was collected aseptically using a Vactainer® K2E system (Belliver, Great Britain) with EDTA and it was stored at 4° C. for a period lower than 2 hours.
The blood was centrifuged at 6000 g for 5 minutes to separate the erythrocytes. There were washed three times with TRIS buffer (10 mM TRIS, 150 mM NaCl, pH 7.2) and they were resuspended in TRIS buffer until obtaining a suspension which contained 10% by volume of erythrocytes.
The peptides were solubilized in TRIS buffer until a final concentration of 100, 300 and 500 μM
The replicas were used for each peptide and concentration.
65 μl of 10% erythrocyte suspension was mixed with 65 μl of the peptide solution in each well of a 96-well plate (Micro-Amp®, Applied Biosystems, USA) (5% by volume of erythrocytes) and the mixture was incubated for 1 h at 37° C. under stirring. In this way, the erythrocyte suspensions were subjected to peptide concentrations of 50, 150 and 250 μM.
Next, the plates were centrifuged at 3500 g during 10 minutes and aliquots were transferred of 80 μl of supernatant to microplates with 100 wells (Bioscreen), which were diluted with 80 μl of milli-Q water.
The degree of haemolysis was determined from the absorbance at 540 nm with a Bioscreen plate reader.
The complete positive haemolysis control was determined in a TRIS buffer solution which contained 200 μM melittin (Sigma-Aldrich, Spain)
The percentage of haemolysis (H) was determined using the following equation: H=100×[Op−Ob)/(Om−Ob)]
Where OP as the optical density measured for a determined peptide concentration, Ob was the optical density of the buffer solution, and Om was the optical density for the positive control with melittin.

Proteinase K [6] = biological target: T1, Proteinase K; conditions: 45 minutes
Method: as §2, §3, §4, §5

[7] = listed as peptide described by Cavallarin et al

T1 sequence (P06873 106-384): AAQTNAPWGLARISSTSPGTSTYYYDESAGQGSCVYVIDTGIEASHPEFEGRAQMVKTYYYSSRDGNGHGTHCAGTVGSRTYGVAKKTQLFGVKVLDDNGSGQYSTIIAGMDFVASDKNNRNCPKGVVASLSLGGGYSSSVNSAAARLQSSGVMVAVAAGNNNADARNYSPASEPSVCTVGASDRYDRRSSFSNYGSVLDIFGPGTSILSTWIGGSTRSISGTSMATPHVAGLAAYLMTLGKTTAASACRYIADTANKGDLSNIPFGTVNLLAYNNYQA

Row | Compound | metabolised at 0.75 h, 50 μg/ml (Proteinase K [1]) [%] | range of concentrations including the MIC, E. amylovora [2] [µM] | range of concentrations including the MIC, P. syringae [3] [µM] | range of concentrations including the MIC, X. vesicatoria [4] [µM] | % Haemolysis 50 μM [5] [%] | % Haemolysis 150 μM [5] [%] | % Haemolysis 250 μM [5] [%] | stability to degradation by proteases relative to the peptide of the Comparative example (Proteinase K [6]) | range of concentrations including the MIC, E. amylovora [2, 7] | range of concentrations including the MIC, P. syringae [3, 7] | range of concentrations including the MIC, X. vesicatoria [4, 7]
1 | CC[C@H](C)[C@H](NC(=O)[C@H](CCCCN)NC(=O)[C@H](CCCCN)NC(=O)[C@H](Cc1ccccc1)NC(=O)[C@H](CC(C)C)NC(=O)[C@H](CCCCN)NC(=O)[C@H](Cc1c[nH]c2ccccc12)NS(=O)(=O)c1ccc(C)cc1)C(=O)N[C@@H](CC(C)C)C(=O)N[C@@H](CCCCN)C(=O)N[C@H](C(=O)N[C@@H](CC(C)C)C(N)=O)C(C)C [BP009] (Tos-WKLFKKILKVL-NH2) | 100 |  |  |  |  |  |  |  |  |  | 
2 | CC[C@H](C)[C@H](NC(=O)[C@H](CCCCN)NC(=O)[C@H](CCCCN)NC(=O)[C@H](Cc1ccccc1)NC(=O)[C@H](CC(C)C)NC(=O)[C@H](CCCCN)NC(=O)[C@H](Cc1c[nH]c2ccccc12)NC(=O)c1ccccc1)C(=O)N[C@@H](CC(C)C)C(=O)N[C@@H](CCCCN)C(=O)N[C@H](C(=O)N[C@@H](CC(C)C)C(N)=O)C(C)C [BP010] (Bz-WKLFKKILKVL-NH2) | 100 | >7.5 | >7.5 | <2.5 | 77 | 77 | 76 |  |  |  | 
3 | CC[C@H](C)[C@H](NC(=O)[C@H](CCCCN)NC(=O)[C@H](CCCCN)NC(=O)[C@H](Cc1ccccc1)NC(=O)[C@H](CC(C)C)NC(=O)[C@H](CCCCN)NC(=O)[C@@H](N)CCCCN)C(=O)N[C@@H](CC(C)C)C(=O)N[C@@H](CCCCN)C(=O)N[C@H](C(=O)N[C@@H](CC(C)C)C(N)=O)C(C)C [BP015] | 100 | 5 to 7.5 | 2.5 to 5 | >7.5 | 0 | 16 | 45 |  |  |  | 
4 | CC[C@H](C)[C@H](NC(=O)[C@H](CCCCN)NC(=O)[C@H](CCCCN)NC(=O)[C@H](Cc1ccccc1)NC(=O)[C@H](CC(C)C)NC(=O)[C@H](CCCCN)NC(=O)[C@@H](N)Cc1c[nH]c2ccccc12)C(=O)N[C@@H](CC(C)C)C(=O)N[C@@H](CCCCN)C(=O)N[C@@H](Cc1ccc(O)cc1)C(=O)N[C@@H](CC(C)C)C(N)=O [BP020] | 85 | 2.5 to 5 | 2.5 to 5 | 2.5 to 5 | 78 | 77 | 72 |  |  |  | 
5 | CC[C@H](C)[C@H](NC(=O)[C@H](CCCCN)NC(=O)[C@H](CCCCN)NC(=O)[C@H](Cc1ccccc1)NC(=O)[C@H](CC(C)C)NC(=O)[C@H](CCCCN)NC(=O)[C@@H](N)CCCCN)C(=O)N[C@@H](CC(C)C)C(=O)N[C@@H](CCCCN)C(=O)N[C@@H](Cc1ccccc1)C(=O)N[C@@H](CC(C)C)C(N)=O [BP076] | 49 | 2.5 to 5 | 2.5 to 5 | 2.5 to 5 | 3 | 34 | 65 | two times more stable |  |  | 
6 | CC[C@H](C)[C@H](NC(=O)[C@H](CCCCN)NC(=O)[C@H](CCCCN)NC(=O)[C@H](Cc1ccccc1)NC(=O)[C@H](CC(C)C)NC(=O)[C@H](CCCCN)NC(=O)[C@H](CCCCN)NC(C)=O)C(=O)N[C@@H](CC(C)C)C(=O)N[C@@H](CCCCN)C(=O)N[C@@H](Cc1ccccc1)C(=O)N[C@@H](CC(C)C)C(N)=O [BP077] | 84 | 5 to 7.5 | 5 to 7.5 | <2.5 | 6 | 40 | 81 |  |  |  | 
7 | CC[C@H](C)[C@H](NC(=O)[C@H](CCCCN)NC(=O)[C@H](CCCCN)NC(=O)[C@H](Cc1ccccc1)NC(=O)[C@H](CC(C)C)NC(=O)[C@H](CCCCN)NC(=O)[C@@H](N)CCCCN)C(=O)N[C@@H](CC(C)C)C(=O)N[C@@H](CCCCN)C(=O)N[C@@H](Cc1ccc(O)cc1)C(=O)N[C@@H](CC(C)C)C(N)=O [BP100] | 60 |  |  | 5 to 7.5 | 3 | 22 | 43 |  |  |  | 
8 | CC[C@H](C)[C@H](NC(=O)[C@H](CCCCN)NC(=O)[C@H](CCCCN)NC(=O)[C@H](Cc1ccccc1)NC(=O)[C@H](CC(C)C)NC(=O)[C@H](CCCCN)NC(=O)[C@H](CCCCN)NS(=O)(=O)c1ccc(C)cc1)C(=O)N[C@@H](CC(C)C)C(=O)N[C@@H](CCCCN)C(=O)N[C@@H](CCCCN)C(=O)N[C@@H](CC(C)C)C(N)=O [BP125] | 67 | >7.5 | 2.5 to 5 | 2.5 to 5 | 2 | 8 | 23 |  |  |  | 
9 | CC[C@H](C)[C@H](NC(=O)[C@H](CCCCN)NC(=O)[C@H](CCCCN)NC(=O)[C@H](Cc1ccccc1)NC(=O)[C@H](CC(C)C)NC(=O)[C@H](CCCCN)NC(=O)[C@H](CCCCN)NC(=O)c1ccccc1)C(=O)N[C@@H](CC(C)C)C(=O)N[C@@H](CCCCN)C(=O)N[C@@H](CCCCN)C(=O)N[C@@H](CC(C)C)C(N)=O [BP126] | 53 | 5 to 7.5 | 2.5 to 5 | 2.5 to 5 | 2 | 14 | 24 | two times more stable |  |  | 
10 | Ac-WKLFKKILKVL-NH2 [BP008] | 100 |  |  |  |  |  |  |  |  |  | 
11 | LKLFKKILKVL-NH2 [BP033] | 100 | 5 to 7.5 | 5 to 7.5 | >7.5 | 4 | 38 | 68 |  |  |  | 
12 | WKLFKKILKFL-NH2 [BP019] | 87 | 5 to 7.5 | 5 to 7.5 | 2.5 to 5 | 57 | 94 | 100 |  |  |  | 
13 | WKLFKKILKVL-NH2 [Comparative example, reference compound] | 100 |  |  |  |  |  |  |  | over 7.5 μM | over 7.5 μM | over 7.5 μM
